Assay results published in patent US20250326732A1 (Pretzel Therapeutics, Inc., priority 2021, published 2025).
pIC50: −log10 of the molar value.

Molecular target: POLRMT (Homo sapiens (Human), UniProt O00411)
Assay: homogeneous TR-FRET assay of mitochondrial transcription (inhibition of POLRMT)
Assay type: biochemical
Conditions: 7.5 nM POLRMT, 15 nM TFB2M, 30 nM TFAM, 0.5 nM DNA template, 500 μM NTPs, 37° C. for 60 minutes
Protocol: The ability of some compounds of the present invention to inhibit POLRMT were determined in a homogeneous TR-FRET Assay using high-throughput screening in a 384-well plate format. […] Detection of the product is facilitated by hybridization of two DNA-oligonucleotide probes to specific and adjacent sequences within the RNA product sequence. Upon annealing of the probes, two fluorophores are coupled directly to an acceptor nucleotide probe (ATTO647, 5′), or introduced via a coupled streptavidin with a biotinylated donor nucleotide probe (Europium cryptate) that is brought into sufficient proximity to serve as a fluorescence-donor-acceptor pair. Thus, a FRET signal at 665 nm is generated upon excitation at 340 nm.
The DNA template is restriction linearized proximal to the promotor 3′-end (pUC-LSP). […] No nucleotide triphosphate mix is added to negative control samples. Microplates with compounds to be tested in the assay are prepared from 10 mM compound stocks in 100% DMSO, equal amounts of DMSO without any compound are added to positive control and negative control samples.
During the incubation, a mix of the detection reagents is prepared in a buffer such that the enzymatic reaction is terminated due to chelating of Mg-ions and increased ionic strength, containing 50 mM Tris-HCl (pH 7.5), 700 mM NaCl, 20 mM EDTA, and 0.01% (w/v) Tween-20. Europium-streptavidin is pre-incubated with a 200-fold molar excess of a random sequence oligonucleotide to block unspecific binding of oligo, for two hours at ambient temperature in the dark. Afterwards, the blocked Europium-streptavidin is kept on ice until use.
At the end of the enzymatic reaction time, 5 μL detection oligo mix in the detection buffer is added, and assay plates are mixed and kept at ambient temperature for one hour, protected from light. The concentration of the Acceptor nucleotide oligo (e.g., ATTO647N-5′-[…]-3′) and Donor nucleotide oligo (e.g., bio-5′-[…](-bio)[…]-bio-3′) in each assay well is 1 nM, and 3 nM, respectively.
After incubation with oligo mix, 5 μL of pre-blocked Europium-streptavidin reagent is dispensed to each assay well, assay plates are again mixed and kept at ambient temperature for one hour, protected from light.
The generated signal is measured with BMG Pherastar microtiter plate reader with a TRF light unit, using excitation at 340 nm, an integration time of 200 μs, and a delay time of 100 μs, before detection at 620 nm and 665 nm. The ratio of donor- and acceptor-fluorescence is used as a measure of the generated transcript product (i.e. enzymatic activity).

POLRMT, sequence (O00411 42-1230): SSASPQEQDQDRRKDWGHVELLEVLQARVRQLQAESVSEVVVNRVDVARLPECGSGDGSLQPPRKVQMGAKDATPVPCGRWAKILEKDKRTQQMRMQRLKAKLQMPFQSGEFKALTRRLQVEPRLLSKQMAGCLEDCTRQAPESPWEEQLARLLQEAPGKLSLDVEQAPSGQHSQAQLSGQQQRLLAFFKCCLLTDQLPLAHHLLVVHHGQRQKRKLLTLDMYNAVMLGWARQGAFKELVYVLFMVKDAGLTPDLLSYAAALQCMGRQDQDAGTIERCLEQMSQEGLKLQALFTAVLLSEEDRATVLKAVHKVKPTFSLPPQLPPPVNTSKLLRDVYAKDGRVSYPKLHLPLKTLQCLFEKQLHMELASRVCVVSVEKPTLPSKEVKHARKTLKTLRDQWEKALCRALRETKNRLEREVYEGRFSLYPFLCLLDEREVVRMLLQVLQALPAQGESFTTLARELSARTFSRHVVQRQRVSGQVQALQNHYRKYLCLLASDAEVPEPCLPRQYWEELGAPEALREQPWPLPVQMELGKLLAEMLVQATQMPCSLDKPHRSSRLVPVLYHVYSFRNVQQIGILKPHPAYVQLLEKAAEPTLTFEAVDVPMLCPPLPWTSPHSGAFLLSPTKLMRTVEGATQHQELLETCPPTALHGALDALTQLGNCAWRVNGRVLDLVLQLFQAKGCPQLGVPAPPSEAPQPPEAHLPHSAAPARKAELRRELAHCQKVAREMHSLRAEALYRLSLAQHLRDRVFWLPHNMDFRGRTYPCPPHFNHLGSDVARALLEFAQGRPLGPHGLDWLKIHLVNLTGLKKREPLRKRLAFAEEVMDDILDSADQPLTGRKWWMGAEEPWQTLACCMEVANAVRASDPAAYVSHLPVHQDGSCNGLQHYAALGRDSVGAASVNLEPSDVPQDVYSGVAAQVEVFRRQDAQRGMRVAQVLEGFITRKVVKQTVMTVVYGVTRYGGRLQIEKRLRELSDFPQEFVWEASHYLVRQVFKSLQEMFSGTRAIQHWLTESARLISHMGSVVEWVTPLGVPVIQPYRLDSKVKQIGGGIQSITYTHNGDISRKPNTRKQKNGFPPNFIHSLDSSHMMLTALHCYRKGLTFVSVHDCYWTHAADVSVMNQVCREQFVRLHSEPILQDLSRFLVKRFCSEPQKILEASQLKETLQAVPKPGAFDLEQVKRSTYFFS

Row | pIC50 | Structure (SMILES)
1 | 5.52 | Cc1ccccc1-c1cc(=O)oc2cc(C(=O)N3CC(C)(CO)C3)ccc12 [Example 124, 7-(3-(hydroxymethyl)-3-methylazetidine-1-carbonyl)-4-(o-tolyl)-2H-chromen-2-one]
2 | 4.68 | Cc1ccccc1-c1cc(=O)oc2cc(CC(C)C(=O)N3CC[C@H](C(=O)O)C3)ccc12 (single isomer, unassigned) [Example 100]
3 | 7.30 | Cc1ccccc1-c1cc(=O)oc2cc(N(C)Cc3ccccc3)ccc12 [Example 126, 7-[benzyl(methyl)amino]-4-(o-tolyl) chromen-2-one]
4 | 4.60 | CCCNC(=O)c1ccc2c(-c3ccc(F)cc3Cl)cc(=O)oc2c1 [Example 22, 4-(2-chloro-4-fluorophenyl)-2-oxo-N-propyl-2H-chromene-7-carboxamide]
5 | < 4.00 | Cc1cc(O[C@H](C)C(=O)N2CCC[C@H](C(=O)O)C2)c2c(-c3ccc(F)cc3)cc(=O)oc2c1 [Example 160, (S)-1-((R)-2-((4-(4-fluorophenyl)-7-methyl-2-oxo-2H-chromen-5-yl)oxy)propanoyl)piperidine-3-carboxylic acid]
6 | 6.40 | CN(CCC(=O)O)c1ccc2c(-c3ccc(F)cc3Cl)cc(=O)oc2c1 [Example 130, 3-((4-(2-chloro-4-fluorophenyl)-2-oxo-2H-chromen-7-yl)(methyl)amino)propanoic acid]
7 | 5.30 | CC(=O)NC1CCN(C(=O)c2ccc3c(-c4ccccc4C)cc(=O)oc3c2)CC1 [Example 109, N-(1-(2-oxo-4-(o-tolyl)-2H-chromene-7-carbonyl)piperidin-4-yl)acetamide]
8 | < 4.00 | COc1ccccc1-c1cc(=O)oc2cc(NC(=O)C(C)C)ccc12 [Example 30, N-(4-(2-methoxyphenyl)-2-oxo-2H-chromen-7-yl) isobutyramide]
9 | 4.31 | C[C@H](Cc1ccc2c(-c3ccc(F)cc3Cl)cc(=O)oc2c1)C(=O)N(C)C [Example 21, (R)-3-(4-(2-chloro-4-fluorophenyl)-2-oxo-2H-chromen-7-yl)-N,N,2-trimethylpropanamide]
10 | 5.52 | Cc1ccccc1-c1cc(=O)oc2cc([C@@H]3C[C@H]3C(=O)O)ccc12 (relative stereo) [Example 227, (trans)-2-(2-oxo-4-(o-tolyl)-2H-chromen-7-yl)cyclopropane-1-carboxylic acid]
11 | 4.12 | CC(=O)NC1CCCN(C(=O)c2ccc3c(-c4ccccc4C)cc(=O)oc3c2)C1 (single isomer, unassigned) [Example 176, N-(1-(2-oxo-4-(o-tolyl)-2H-chromene-7-carbonyl)piperidin-3-yl)acetamide]
12 | 6.70 | Cc1ccccc1-c1cc(=O)oc2cc(N(C)CC(N)=O)ccc12 [Example 106, 2-(methyl(2-oxo-4-(o-tolyl)-2H-chromen-7-yl)amino)acetamide]
13 | 6.22 | O=C(OCc1ccc2c(-c3ccc(F)cc3Cl)cc(=O)oc2c1)N1CCCCC1 [Example 38, (4-(2-chloro-4-fluorophenyl)-2-oxo-2H-chromen-7-yl)methyl piperidine-1-carboxylate]
14 | 6.00 | CC[C@@H](Nc1ccc2c(-c3ccccc3C)cc(=O)oc2c1)C(N)=O [Example 211, (R)-2-((2-oxo-4-(o-tolyl)-2H-chromen-7-yl)amino)butanamide]
15 | 6.70 | Cc1ccccc1-c1cc(=O)oc2cc(N(C)CC(=O)O)ccc12 [Example 76, N-methyl-N-(2-oxo-4-(o-tolyl)-2H-chromen-7-yl)glycine]
16 | 7.30 | CNC(=O)CN(C)c1ccc2c(-c3ccccc3C)cc(=O)oc2c1 [Example 177, N-methyl-2-(methyl(2-oxo-4-(o-tolyl)-2H-chromen-7-yl)amino)acetamide]
17 | 7.70 | CCOC(=O)CN(C)c1ccc2c(-c3ccccc3C)cc(=O)oc2c1 [Example 142, ethyl N-methyl-N-(2-oxo-4-(o-tolyl)-2H-chromen-7-yl)glycinate]
18 | 5.52 | Cc1ccccc1-c1cc(=O)oc2cc(NCc3ccn[nH]3)ccc12 [Example 169, 7-(((1H-pyrazol-5-yl)methyl)amino)-4-(o-tolyl)-2H-chromen-2-one]
19 | 5.52 | Cc1ccccc1-c1cc(=O)oc2cc(NCc3nccs3)ccc12 [Example 165, 7-((thiazol-2-ylmethyl)amino)-4-(o-tolyl)-2H-chromen-2-one]

The next lines start with the compound.

Row | Structure (SMILES) | pIC50
20 | Cc1ccccc1-c1cc(=O)oc2cc(C(C)CC(=O)N3CCC[C@H](C(=O)O)C3)ccc12 (single isomer, unassigned) [Example 81] | 6.00
21 | Cc1ccccc1-c1cc(=O)oc2cc(CC(C)C(=O)N(C)C)ccc12 (single isomer, unassigned) [Example 64, N,N,2-trimethyl-3-(2-oxo-4-(o-tolyl)-2H-chromen-7-yl)propanamide] | 6.52
22 | CC(C(N)=O)N(C)c1ccc2c(-c3ccccc3)cc(=O)oc2c1 (stereo not shown) [Example 194, 2-(methyl(2-oxo-4-phenyl-2H-chromen-7-yl)amino)propanamide] | 6.52
23 | Cc1ccccc1-c1cc(=O)oc2cc(CC(C#N)CO)ccc12 (stereo not shown) [Example 200, 3-hydroxy-2-((2-oxo-4-(o-tolyl)-2H-chromen-7-yl)methyl)propanenitrile] | 5.52
24 | Cc1ccccc1-c1cc(=O)oc2cc(CC(C)C(=O)N3CCC[C@H](S(C)(=O)=O)C3)ccc12 (single isomer, unassigned) [Example 86] | 5.30
25 | Cc1ccccc1-c1cc(=O)oc2cc(CNC(=O)C3CCC(C(=O)O)CC3)ccc12 [Example 157, (1S,4S)-4-(((2-oxo-4-(o-tolyl)-2H-chromen-7-yl)methyl)carbamoyl)cyclohexane-1-carboxylic acid] | 5.70
26 | COCC(C#N)Cc1ccc2c(-c3ccccc3C)cc(=O)oc2c1 (stereo not shown) [Example 201, 3-methoxy-2-((2-oxo-4-(o-tolyl)-2H-chromen-7-yl)methyl)propanenitrile] | 5.70
27 | COCC(Nc1ccc2c(-c3ccccc3C)cc(=O)oc2c1)C(N)=O (stereo not shown) [Example 199, 3-methoxy-2-((2-oxo-4-(o-tolyl)-2H-chromen-7-yl)amino)propanamide] | 6.10
28 | Cc1ccccc1-c1cc(=O)oc2cc(NCc3ncco3)ccc12 [Example 166, 7-((oxazol-2-ylmethyl)amino)-4-(o-tolyl)-2H-chromen-2-one] | 5.30
29 | Cc1ccccc1-c1cc(=O)oc2cc(CO)ccc12 [Example 09, 7-(hydroxymethyl)-4-(o-tolyl)-2H-chromen-2-one] | 5.00
30 | CC[C@H](Nc1ccc2c(-c3ccccc3C)cc(=O)oc2c1)C(N)=O [Example 212, (S)-2-((2-oxo-4-(o-tolyl)-2H-chromen-7-yl)amino)butanamide] | 6.22
31 | Cc1cc(O)c2c(-c3ccc(F)cc3)cc(=O)oc2c1 [Example 12, 4-(4-fluorophenyl)-5-hydroxy-7-methyl-2H-chromen-2-one] | < 4.00
32 | Cc1ccccc1-c1cc(=O)oc2cc(N(C)CC3(C(=O)O)CC3)ccc12 [Example 217, 1-((methyl(2-oxo-4-(o-tolyl)-2H-chromen-7-yl)amino)methyl)cyclopropane-1-carboxylic acid] | 7.05
33 | Cc1cc(O[C@H](C)C(=O)N(C)C)c2c(-c3ccc(F)cc3)cc(=O)oc2c1 [Example 162, (R)-2-((4-(4-fluorophenyl)-7-methyl-2-oxo-2H-chromen-5-yl)oxy)-N,N-dimethylpropanamide] | < 4.00
34 | CCOC(=O)C(C)Cc1ccc2c(-c3ccccc3C)cc(=O)oc2c1 (stereo not shown) [Example 51, ethyl 2-methyl-3-[4-(o-tolyl)-2-oxo-chromen-7-yl]propanoate] | 6.52
